The structures appear in SMILES notation.

The target in assay [1] is T1, Anopheles VKR (AgVKR; VKR^WT) (Anopheles gambiae, UniProt C5H7S1).
T1 sequence (C5H7S1 26-1465): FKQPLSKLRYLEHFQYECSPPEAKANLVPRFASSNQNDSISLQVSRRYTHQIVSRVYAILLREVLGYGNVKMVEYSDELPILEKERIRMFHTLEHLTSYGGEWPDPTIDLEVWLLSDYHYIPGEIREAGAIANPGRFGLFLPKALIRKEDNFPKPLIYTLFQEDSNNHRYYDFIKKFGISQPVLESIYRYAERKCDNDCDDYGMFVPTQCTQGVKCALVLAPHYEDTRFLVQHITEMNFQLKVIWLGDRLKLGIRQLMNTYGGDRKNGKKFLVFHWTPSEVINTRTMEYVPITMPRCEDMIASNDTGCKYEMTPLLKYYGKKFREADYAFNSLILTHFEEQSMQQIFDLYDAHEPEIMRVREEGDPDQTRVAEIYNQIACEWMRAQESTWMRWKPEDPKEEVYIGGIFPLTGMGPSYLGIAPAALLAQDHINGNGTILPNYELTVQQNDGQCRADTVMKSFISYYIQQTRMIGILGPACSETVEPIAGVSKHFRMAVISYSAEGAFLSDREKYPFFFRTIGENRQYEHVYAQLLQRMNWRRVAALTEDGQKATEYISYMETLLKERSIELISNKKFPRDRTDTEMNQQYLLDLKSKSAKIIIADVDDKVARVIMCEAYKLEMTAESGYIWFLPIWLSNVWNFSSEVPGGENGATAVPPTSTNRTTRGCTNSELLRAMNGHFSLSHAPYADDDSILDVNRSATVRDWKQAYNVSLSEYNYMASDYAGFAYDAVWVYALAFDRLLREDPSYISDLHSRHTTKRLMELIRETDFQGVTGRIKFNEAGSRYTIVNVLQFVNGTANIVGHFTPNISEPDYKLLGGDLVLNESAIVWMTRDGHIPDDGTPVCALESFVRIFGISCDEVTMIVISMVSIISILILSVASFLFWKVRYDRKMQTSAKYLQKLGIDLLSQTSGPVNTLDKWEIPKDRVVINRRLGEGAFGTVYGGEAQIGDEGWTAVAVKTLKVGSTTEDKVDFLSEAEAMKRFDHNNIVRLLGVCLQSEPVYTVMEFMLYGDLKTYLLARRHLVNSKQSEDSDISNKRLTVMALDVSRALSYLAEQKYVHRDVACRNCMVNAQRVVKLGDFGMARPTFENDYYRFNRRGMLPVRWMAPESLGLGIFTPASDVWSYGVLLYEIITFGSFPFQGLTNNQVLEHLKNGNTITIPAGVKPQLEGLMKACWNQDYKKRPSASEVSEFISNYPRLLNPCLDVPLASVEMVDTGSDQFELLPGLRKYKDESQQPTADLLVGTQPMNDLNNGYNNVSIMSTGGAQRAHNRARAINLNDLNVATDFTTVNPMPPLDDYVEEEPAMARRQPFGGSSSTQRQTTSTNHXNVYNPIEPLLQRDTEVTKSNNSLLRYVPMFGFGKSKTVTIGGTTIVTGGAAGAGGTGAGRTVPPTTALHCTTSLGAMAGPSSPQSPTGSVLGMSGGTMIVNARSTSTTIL
In words: GVBD of Xenopus oocytes expressing VKR. The assay is classed as cell-based. The note with it: agonist; VFT domain; ND96 medium pH 7.4, 19 °C, 18 h; not an EC50.

The target in assay [2] is T1, Anopheles VKR (AgVKR; VKR^WT). In words: GVBD of Xenopus oocytes expressing VKR; anti-phosphotyrosine Western blot. The assay is classed as cell-based. The note with it: agonist; VFT domain; ND96 medium pH 7.4, 19 °C, 18 h; not an EC50.

For the compound `N[C@@H](CS)C(=O)O` [L-Cys], the “minimal concentration to induce GVBD” value in assay [1] was 1 mM.

Turning to `N=C(N)NCCC[C@H](N)C(=O)O` [L-Arg], the “minimal concentration to induce GVBD” value in assay [2] was 1 µM.

Source of the values: article PMC6401105, “Dual role of the Anopheles coluzzii Venus Kinase Receptor in both larval growth and immunity” (Scientific Reports, 2019).
